PubChem BioAssay (NCI)
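GI50: concentration for 50% inhibition of growth. TGI: total growth inhibition.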

Experiments:
Assay in all cases: NCI-60 cell line screen, 384-well format
NCI-H226 lung = test system: NCI-H226 lung
786-0 renal = test system: 786-0 renal
OVCAR-8 ovarian = test system: OVCAR-8 ovarian
HOP-62 NSCLC = test system: HOP-62 NSCLC
MCF7 breast = test system: MCF7 breast
MOLT-4 leukemia = test system: MOLT-4 leukemia
A498 renal = test system: A498 renal
HCT-116 colon = test system: HCT-116 colon
NCI-H322M lung = test system: NCI-H322M lung
A549 NSCLC = test system: A549 NSCLC
SF-539 CNS = test system: SF-539 CNS
RXF 393 renal = test system: RXF 393 renal
TK-10 renal = test system: TK-10 renal
HL-60(TB) leukemia = test system: HL-60(TB) leukemia
SW-620 colon = test system: SW-620 colon
HS 578T breast = test system: HS 578T breast
SN12C renal = test system: SN12C renal
SNB-19 CNS = test system: SNB-19 CNS
CAKI-1 renal = test system: CAKI-1 renal
COLO 205 colon = test system: COLO 205 colon
OVCAR-5 ovarian = test system: OVCAR-5 ovarian
MALME-3M melanoma = test system: MALME-3M melanoma
M14 melanoma = test system: M14 melanoma
MDA-MB-435 melanoma = test system: MDA-MB-435 melanoma
NCI-H522 lung = test system: NCI-H522 lung
IGROV1 ovarian = test system: IGROV1 ovarian
SK-OV-3 ovarian = test system: SK-OV-3 ovarian
UACC-257 melanoma = test system: UACC-257 melanoma
UACC-62 melanoma = test system: UACC-62 melanoma
U251 glioblastoma = test system: U251 glioblastoma
HCT-15 colon = test system: HCT-15 colon
PC-3 prostate = test system: PC-3 prostate
NCI-H460 NSCLC = test system: NCI-H460 NSCLC
T-47D breast = test system: T-47D breast
SF-268 CNS = test system: SF-268 CNS
SNB-75 CNS = test system: SNB-75 CNS
SK-MEL-5 melanoma = test system: SK-MEL-5 melanoma
MDA-MB-231 breast = test system: MDA-MB-231 breast
ACHN renal = test system: ACHN renal
DU-145 prostate = test system: DU-145 prostate
OVCAR-4 ovarian = test system: OVCAR-4 ovarian
SF-295 CNS = test system: SF-295 CNS
MDA-MB-468 breast = test system: MDA-MB-468 breast
HOP-92 NSCLC = test system: HOP-92 NSCLC
K-562 leukemia = test system: K-562 leukemia
OVCAR-3 ovarian = test system: OVCAR-3 ovarian
UO-31 renal = test system: UO-31 renal
KM12 colon = test system: KM12 colon
SK-MEL-2 melanoma = test system: SK-MEL-2 melanoma
EKVX NSCLC = test system: EKVX NSCLC
HT29 colon = test system: HT29 colon
SR leukemia = test system: SR leukemia
NCI-H23 lung = test system: NCI-H23 lung
SK-MEL-28 melanoma = test system: SK-MEL-28 melanoma

Structure (SMILES): C[C@@H](COCCC(=O)N1CCN(c2ncc(C(F)(F)F)cn2)CC1)Nc1cn[nH]c(=O)c1C(F)(F)F
- GI50 (NCI-H226 lung): 18.6 µM
- TGI (NCI-H226 lung): > 100 µM
- GI50 ([…]-0 renal): 41.5 µM
- TGI (786-0 renal): > 100 µM
- GI50 (OVCAR-8 ovarian): 14.7 µM
- TGI (OVCAR-8 ovarian): > 100 µM
- GI50 (HOP-62 NSCLC): 4.01 µM
- TGI (HOP-62 NSCLC): 22.5 µM
- GI50 (MCF7 breast): 14.5 µM
- TGI (MCF7 breast): > 100 µM
- GI50 (MOLT-4 leukemia): 1.53 µM
- TGI (MOLT-4 leukemia): 2.97 µM
- GI50 (A498 renal): > 100 µM
- TGI (A498 renal): > 100 µM
- GI50 (HCT-116 colon): 8.64 µM
- TGI (HCT-116 colon): > 100 µM
- GI50 (NCI-H322M lung): > 100 µM
- TGI (NCI-H322M lung): > 100 µM
- GI50 (A549 NSCLC): 41 µM
- TGI (A549 NSCLC): > 100 µM
- GI50 (SF-539 CNS): 3.28 µM
- TGI (SF-539 CNS): 27.4 µM
- TGI (RXF 393 renal): 20.3 µM
- GI50 (TK-10 renal): > 100 µM
- TGI (TK-10 renal): > 100 µM
- GI50 (HL-60(TB) leukemia): 2.49 µM
- TGI (HL-60(TB) leukemia): 16 µM
- GI50 (SW-620 colon): 0.187 µM
- TGI (SW-620 colon): > 100 µM
- GI50 (HS 578T breast): 1.09 µM
- TGI (HS 578T breast): > 100 µM
- GI50 (SN12C renal): 5.17 µM
- TGI (SN12C renal): 51.9 µM
- GI50 (SNB-19 CNS): 48 µM
- TGI (SNB-19 CNS): > 100 µM
- GI50 (CAKI-1 renal): 25.7 µM
- TGI (CAKI-1 renal): > 100 µM
- GI50 (COLO 205 colon): > 100 µM
- TGI (COLO 205 colon): > 100 µM
- GI50 (OVCAR-5 ovarian): > 100 µM
- TGI (OVCAR-5 ovarian): > 100 µM
- GI50 (MALME-3M melanoma): > 100 µM
- TGI (MALME-3M melanoma): > 100 µM
- GI50 (M14 melanoma): 46.8 µM
- TGI (M14 melanoma): > 100 µM
- GI50 (MDA-MB-435 melanoma): > 100 µM
- TGI (MDA-MB-435 melanoma): > 100 µM
- GI50 (NCI-H522 lung): 31.8 µM
- TGI (NCI-H522 lung): > 100 µM
- GI50 (IGROV1 ovarian): 69.1 µM
- TGI (IGROV1 ovarian): > 100 µM
- GI50 (SK-OV-3 ovarian): 13.9 µM
- TGI (SK-OV-3 ovarian): 79.8 µM
- GI50 (UACC-257 melanoma): 60.4 µM
- TGI (UACC-257 melanoma): > 100 µM
- GI50 (UACC-62 melanoma): 32.3 µM
- TGI (UACC-62 melanoma): > 100 µM
- GI50 (U251 glioblastoma): 11.6 µM
- TGI (U251 glioblastoma): 73.7 µM
- GI50 (HCT-15 colon): 77.9 µM
- TGI (HCT-15 colon): > 100 µM
- GI50 (PC-3 prostate): 62.5 µM
- TGI (PC-3 prostate): > 100 µM
- GI50 (NCI-H460 NSCLC): 16.1 µM
- TGI (NCI-H460 NSCLC): > 100 µM
- GI50 (T-47D breast): 24.2 µM
- TGI (T-47D breast): > 100 µM
- GI50 (SF-268 CNS): 10.1 µM
- TGI (SF-268 CNS): 73.1 µM
- GI50 (SNB-75 CNS): 12.4 µM
- TGI (SNB-75 CNS): > 100 µM
- GI50 (SK-MEL-5 melanoma): 48.5 µM
- TGI (SK-MEL-5 melanoma): > 100 µM
- GI50 (MDA-MB-231 breast): > 100 µM
- TGI (MDA-MB-231 breast): > 100 µM
- GI50 (ACHN renal): 24 µM
- TGI (ACHN renal): > 100 µM
- GI50 (DU-145 prostate): 12.7 µM
- TGI (DU-145 prostate): > 100 µM
- GI50 (OVCAR-4 ovarian): > 100 µM
- TGI (OVCAR-4 ovarian): > 100 µM
- GI50 (SF-295 CNS): 6.19 µM
- TGI (SF-295 CNS): 33.9 µM
- GI50 (MDA-MB-468 breast): 3.72 µM
- TGI (MDA-MB-468 breast): 23.5 µM
- GI50 (HOP-92 NSCLC): 41.2 µM
- TGI (HOP-92 NSCLC): > 100 µM
- GI50 (K-562 leukemia): 10 µM
- TGI (K-562 leukemia): > 100 µM
- GI50 (OVCAR-3 ovarian): 35.5 µM
- TGI (OVCAR-3 ovarian): > 100 µM
- GI50 (UO-31 renal): 22.4 µM
- TGI (UO-31 renal): > 100 µM
- GI50 (KM12 colon): 3.66 µM
- TGI (KM12 colon): 82.7 µM
- GI50 (SK-MEL-2 melanoma): > 100 µM
- TGI (SK-MEL-2 melanoma): > 100 µM
- GI50 (EKVX NSCLC): 63.6 µM
- TGI (EKVX NSCLC): > 100 µM
- GI50 (HT29 colon): > 100 µM
- TGI (HT29 colon): > 100 µM
- GI50 (SR leukemia): 1.31 µM
- TGI (SR leukemia): 2.67 µM
- GI50 (NCI-H23 lung): 9.26 µM
- TGI (NCI-H23 lung): 52.1 µM
- GI50 (SK-MEL-28 melanoma): > 100 µM
- TGI (SK-MEL-28 melanoma): > 100 µM
